Test [1] deals with advanced colorectal cancer. Conditions: advanced disease (Petrioli et al., 1995); cited from earlier work.
In another test the test system is a number of cell lines. As to conditions: Seva et al., 1990; Watson et al., 1991a; cited from earlier work.
For test [2], the system named is gastrin-sensitive mouse colon tumor MC26. As to conditions: MC26-bearing mice; control animals 25 days; cited from earlier work.
In a further test the test system is rat colon tumor DHDK12. Briefly: In vivo growth of DHDK12 tumors in abdominal wall muscle layer of BDIX rats. Conditions: immunization alone (200 μg/ml), 50 day time period; untreated 4.43 g. As to the method: Cell line. DHDK12 is a rat colonic epithelial tumor cell line (Martin, 1983). The cell line was maintained in RPMI 1640 growth medium (Gibco, Paisley, Scotland) containing 10% fetal calf serum (FCS, Sigma, Poole, UK) in humidified conditions at 37° C. and 5% CO2.
Initiation of tumor growth. DHDK12 cells were suspended in sterile phosphate buffered line (PBS, Oxoid, Hants., UK) at a cell concentration of 2.5×10^7/ml. Rats were anesthetized by a 1 ml intraperitoneal injection of Hypnorm ([…] fenatanyl citrate and 10 mg/ml fluanisone; Jannsen, Berrse, Belgium), Hypnovel ([…] midazolam; Roche, Basel, Switzerland), and sterile distilled water in a 1:1:5 ratio. Following a subcutaneous (s.c.) incision on the right flank, a 200 μl volume of cell suspension was injected into the muscle layer of the abdominal wall and the surgical incision closed by wound clips. Each experimental group was composed of between 6 and 13 animals.
The effects of combined therapies with 5-FU/Leucovorin (12.5-30 mg/kg) and rat anti-G17(1-9)-DT (200 μg/ml) on the growth of the rat colon tumor DHDK12 cell line in the muscle layer of the abdominal wall of BDIX rats were tested by comparison to tumors in control animals as described in the previous Examples. At the end of the therapies the rats were killed, their tumors excised and weighed using standard procedures. […]

Turning to `O=c1[nH]cc(F)c(=O)[nH]1` [5-FU, 5-fluorouracil], the median survival in test [1] is given as 7.5 months. For `O=C(N[C@@H](Cc1c[nH]c2ccccc12)C(=O)O)c1ccc(Cl)cc1` [Benzotript], in the test with a number of cell lines, the “effect on basal and gastrin-stimulated proliferation” value is “inhibited”. With `CCCN(CCC)C(=O)C(CCC(=O)O)NC(=O)c1ccccc1` (centres unmarked) [proglumide], in test [2], the “survival of treated animals” value is on record as 39 days. Further, the “effect on basal and gastrin-stimulated proliferation” value with a number of cell lines was “inhibited”. The compound Diphtheria toxoid [DT] gave a median tumor weight in the test on rat colon tumor DHDK12 of 4.7 g.

Values taken from patent publication US8343930B2, “Combination therapy for the treatment of tumors” (Cancer Advances, Inc., priority 2001, dated 2013).
